Data published in US20190307783A1, “USE OF ANTIVIRALS TO INHIBIT PROTOZOAN VIRUSES” (priority 2016, published 2019).
Where two headings read alike, the source gives them in different places.

How the values were obtained:
[1] = tested on: LRV1 (LgyLRV1 capsid levels); experiment: organism not typed; details: for Effect on LRV1 (capsid) levels, in words: screen at 100 μM or maximum concentration permitted by solubility; for Inhibition of LRV1 levels, in words: concentrations up to 100 μM, data not shown
Description: Because LRV1 (like most Totiviridae) is not shed from the cell (33, 34), we developed a flow cytometric assay to measure intracellular LRV1 capsid levels on a per cell basis. To detect LRV1 we used binding to a rabbit anti-LgyLRV1 capsid antiserum (35) followed by detection with Alexa Fluor488-conjugated goat anti-rabbit IgG.
(§1) Parasites were inoculated at 2×10^5 cells/mL into Schneider's media lacking supplemental adenine.
For capsid flow cytometry, 10^7 cells were fixed at room temperature using 2% (wt/vol) paraformaldehyde (Thermo Fisher Scientific) in PBS for 2 minutes. They were then incubated in blocking buffer [10% (vol/vol) normal goat serum (Vector Laboratories, Burlingame, Calif., USA) and 0.2% TRITON X-100 in PBS] for 30 minutes at room temperature. Anti-LgyLRV1 capsid antibody (35) was added (1:20,000 dilution) and incubated at room temperature for 1 hour. After two washes with PBS, cells were resuspended in 200 μL PBS with Alexa Fluor488-labeled goat anti-rabbit IgG (Alexafluor, Invitrogen; 1:1,000; or Thermo Fisher Scientific; 1:2,000 dilution), and incubated 1 hour at room temperature. After two additional washes with PBS, cells were subjected to flow cytometry, gating for single cells using forward and side scatter and the data analyzed using […] software (BD Bioscience, San Jose, Calif., USA).

L. guyanensis (LgyLRV1+) = experiment: Drug-inhibition test: growth of LgyLRV1+ parasites; assay type: cell-based, Leishmania guyanensis; details: for Effect on L. guyanensis growth, in words: screen at 100 μM or maximum concentration permitted by solubility, 2 days; for Population doubling time: untreated ˜7.7 hours
Method: These compounds were examined for their ability to inhibit the growth of LgyLRV1^+ and virus levels by LRV1 capsid flow cytometry.
Most studies were performed using luciferase-expressing transfectants of L. guyanensis (MHOM/BR/78/M4147) described previously [LRV1^+ LgyM4147/SSU:IR2SAT-LUC(b)c3 and LRV^−LgyM4147/pX63HYG/SSU:IR2SAT-LUC(b)c4] (54); these lines are termed LgyLRV1^+ and LgyLRV1^−, respectively. Two strains of LRV1^+L. braziliensis were examined: LEM2780 (MHOM/BO/90/CS) and LEM3874 (MHOM/BO/99/IMT252 no. 3) (12). Parasites were grown in Schneider's media (Sigma Aldrich, St. Louis, Mo., USA) prepared according to the supplier's instructions with pH adjusted to 6.5 and supplemented with 0.76 mM hemin, 2 μg/mL biopterin, 50 U/mL penicillin, 50 μg/mL streptomycin, and 10% (vol/vol) heat-inactivated FBS. Cell concentrations were determined using a Coulter Counter ([…], Indianapolis, Ind., USA).
as §1

[2] = LgyLRV1+, tested at 100 μM, 2 days
[3] = LgyLRV1+, tested at 100 μM, growth after 2 days
[4] = 48 h, read-out: Percent control (LRV1 capsid)
[5] = Leishmania guyanensis, 48 h, LgyLRV1+, tested at 100 μM, growth after 2 days, read-out: Percent control (density)
[6] = LgyLRV1+, tested at 50 μM, 2 days
[7] = LgyLRV1+, tested at 50 μM, growth after 2 days

Row | Compound | LRV1 capsid (geometric mean FU) [1, 2] | Density (cells/mL) (L. guyanensis (LgyLRV1+); [3]) | activity at 100 µM [1, 4] | activity at 100 µM (L. guyanensis (LgyLRV1+); [5]) | also measured
1 | 3′-Azido-3′-hydroxyethyl cyclobutyl adenine [Compound E8] | 277 FU | 1.86E+7 cells/mL | – | – | Percent control (LRV1 capsid) [1, 2]: 104 Percent control; Percent control (density) (L. guyanensis (LgyLRV1+); [3]): 111 Percent control
2 | 3′-Azido-3′-hydroxyethyl cyclobutyl adenine [Compound E9] | 279 FU | 1.58E+7 cells/mL | – | – | Percent control (LRV1 capsid) [1, 2]: 105 Percent control; Percent control (density) (L. guyanensis (LgyLRV1+); [3]): 94 Percent control
3 | 3′-Hydroxyethyl cyclobutyl adenine | 290 FU | 1.82E+7 cells/mL | – | – | Percent control (LRV1 capsid) [1, 2]: 109 Percent control; Percent control (density) (L. guyanensis (LgyLRV1+); [3]): 108 Percent control
4 | Nc1ncnc2c1ncn2[C@@H]1O[C@H](CO)[C@@H](O)[C@H]1F [2′-Fluoro-2′-deoxyadenosine] | 257 FU | 2.07E+7 cells/mL | 97% | 123% | –
5 | Nc1ccn([C@@H]2O[C@H](CO)[C@@H](O)[C@H]2F)c(=O)n1 [2′-Fluoro-2′-deoxycytidine] | 230 FU | 2.21E+7 cells/mL | 87% | 132% | –
6 | OC[C@H]1O[C@@H](n2cnc3c(O)ncnc32)[C@H](F)[C@@H]1O [2′-Fluoro-2′-deoxyinosine] | 255 FU | 2.41E+7 cells/mL | 96% | 143% | –
7 | Nc1nc2c(ncn2[C@@H]2O[C@H](CO)[C@@H](O)[C@H]2F)c(=O)[nH]1 [2′-fluoro-2′-deoxyguanosine, 2′-Fluoro-2′-deoxyguanosine] | 326 FU | 1.68E+7 cells/mL | 123% | 100% | –
8 | O=c1ccn([C@@H]2O[C@H](CO)[C@@H](O)[C@H]2F)c(=O)[nH]1 [2′-fluoro-2′-deoxyuridine, 2′-Fluoro-2′-deoxyuridine] | 234 FU | 2.22E+7 cells/mL | 88% | 132% | –
9 | C[C@@]1(O)[C@H](O)[C@@H](CO)O[C@H]1n1cnc2c(=O)[nH]c(N)nc21 [2′C-Methyguanosine, 2′C-Methyl guanosine] | 252 FU | 2.25E+7 cells/mL | – | – | Percent control (LRV1 capsid) [1, 2]: 95 Percent control; Effect on LRV1 (capsid) levels, in words ([1]; 2 days): little effect; Percent control (density) (L. guyanensis (LgyLRV1+); [3]): 133 Percent control; Effect on L. guyanensis growth, in words (L. guyanensis (LgyLRV1+)): little effect
10 | C[C@@]1(O)[C@H](O)[C@@H](CO)O[C@H]1n1ccc(N)nc1=O [2′C-Methylcytidine, 2′C-Methyl cytidine] | 162 FU | 1.73E+7 cells/mL | – | – | Percent control (LRV1 capsid) [1, 2]: 61 Percent control; Effect on LRV1 (capsid) levels, in words ([1]; 2 days): little effect; Percent control (density) (L. guyanensis (LgyLRV1+); [3]): 103 Percent control; Effect on L. guyanensis growth, in words (L. guyanensis (LgyLRV1+)): little effect
11 | C[C@H]1O[C@@H](n2cc(F)c(=O)[nH]c2=O)[C@H](O)[C@@H]1O [5-Fluoro-5′-deoxyuridine] | 234 FU | 4.71E+6 cells/mL | 88% | 28% | –
12 | O=c1[nH]cc(F)c(=O)[nH]1 [5-Fluorouracil] | – | 9.05E+5 cells/mL | 193% | 5% | LRV1 capsid (geometric mean FU) [1]: 512 FU
13 | O=c1[nH]cnc2nn[nH]c12 [8-Azahypoxanthine] | 251 FU | 1.29E+7 cells/mL | 95% | 77% | –
14 | Nc1nc2c(ncn2COCCO)c(=O)[nH]1 [Acyclovir] | – | – | – | – | activity at 120 µM [1, 4]: 259%; activity at 120 µM (L. guyanensis (LgyLRV1+); Leishmania guyanensis, 48 h, LgyLRV1+, tested at 120 μM, growth after 2 days, read-out: Percent control (density)): 51%; Density (cells/mL) (L. guyanensis (LgyLRV1+); LgyLRV1+, tested at 120 μM, growth after 2 days): 8.55E+6 cells/mL
15 | Oc1ncnc2[nH]ncc12 [Allopurinol] | 90 FU | 4.06E+5 cells/mL | 34% | 2% | Inhibition of LRV1 capsid levels ([1]; highest concentration tested, 48-hour propagation (FIG. 18A)): 60%; Inhibition of L. guyanensis growth (L. guyanensis (LgyLRV1+); highest concentration tested, 48-hour propagation, growth rate (FIG. 18A)): 30%
16 | CCCNC(=O)[C@H]1O[C@@H]1C(=O)N[C@H](C(=O)N1CCC[C@H]1C(=O)OC)[C@@H](C)CC [CA-074-Me, CA-074 Me] | – | – | – | – | LRV1 capsid (geometric mean FU) [1, 6]: 83 FU; Percent control (LRV1 capsid) [1, 6]: 31 Percent control; Effect on LRV1 (capsid) levels, in words ([1]; 2 days): only minimal effects; Density (cells/mL) (L. guyanensis (LgyLRV1+); [7]): 1.00E+07 cells/mL; Percent control (density) (L. guyanensis (LgyLRV1+); [7]): 60 Percent control; Effect on L. guyanensis growth, in words (L. guyanensis (LgyLRV1+)): no effects
17 | C[C@@H]1C[C@@H]([C@H](O)CC2CC(=O)NC(=O)C2)C(=O)[C@@H](C)C1 [CHX, cycloheximide] | – | – | – | – | LRV1 capsid levels under growth-inhibiting agent, in words ([1]; LgyLRV1+, 48-hour propagation in increasing concentrations): unaffected; Population doubling time (L. guyanensis (LgyLRV1+); L. guyanensis at 10 nM): 11.2 h; Population doubling time (L. guyanensis (LgyLRV1+); L. guyanensis at 100 nM): 44.7 h
18 | CCCC(=O)O[C@H]1CN2CC[C@H](O)[C@@H]2[C@@H](O)[C@@H]1O [Celgosivir, 6-O-butanoyl castanospermine] | – | – | – | – | activity at 10 µM [1, 4]: 47%; LRV1 capsid (geometric mean FU) ([1]; LgyLRV1+, tested at 10 μM, 2 days): 124 FU; activity at 10 µM (L. guyanensis (LgyLRV1+); Leishmania guyanensis, 48 h, LgyLRV1+, tested at 10 μM, growth after 2 days, read-out: Percent control (density)): 65%; Density (cells/mL) (L. guyanensis (LgyLRV1+); LgyLRV1+, tested at 10 μM, growth after 2 days): 1.09E+7 cells/mL
19 | CN(C)c1ncnc2c1ncn2[C@@H]1O[C@H](CO)[C@@H](O)[C@H]1O [Chembridge 5790592, N,N-dimethyl adenosine] | – | 1.00E+5 cells/mL | 108% | 1% | LRV1 capsid (geometric mean FU) [1]: 287 FU
20 | Nc1ccn(C[C@@H](CO)OCP(=O)(O)O)c(=O)n1 [Cidofovir] | – | – | – | – | activity at 40 µM [1, 4]: 240%; LRV1 capsid (geometric mean FU) ([1]; LgyLRV1+, tested at 40 μM, 2 days): 637 FU; activity at 40 µM (L. guyanensis (LgyLRV1+); Leishmania guyanensis, 48 h, LgyLRV1+, tested at 40 μM, growth after 2 days, read-out: Percent control (density)): 59%; Density (cells/mL) (L. guyanensis (LgyLRV1+); LgyLRV1+, tested at 40 μM, growth after 2 days): 9.99E+6 cells/mL
21 | O=c1nc[nH]c(=O)[nH]1 [Compound 5-Azauracil, 5-Azauracil] | – | – | 95% | – | LRV1 capsid (geometric mean FU) [1]: 252 FU; Density (cells/mL) (L. guyanensis (LgyLRV1+)): 1.13E+7 cells/mL; activity at 100 µM (L. guyanensis (LgyLRV1+); Leishmania guyanensis, 48 h, read-out: Percent control (density)): 67%
22 | O=c1cn[nH]c(=O)[nH]1 [Compound 6-Azauracil, 6-Azauracil] | – | 1.20E+7 cells/mL | 102% | 71% | LRV1 capsid (geometric mean FU) [1]: 271 FU
23 | Nc1nc2nn[nH]c2c(=O)[nH]1 [Compound 8-Azaguanine, 8-Azaguanine] | – | 5.68E+6 cells/mL | 100% | 34% | LRV1 capsid (geometric mean FU) [1]: 264 FU
24 | Nc1ncnc2c(CN3C[C@H](CO)[C@@H](O)C3)c[nH]c12 [DADMe-Immucillin A] | – | – | – | – | Inhibition of LRV1 levels, in words [1]: no inhibition of LRV1 levels
25 | O=c1[nH]cnc2c(CN3C[C@H](CO)[C@@H](O)C3)c[nH]c12 [DADMe-Immucillin H] | – | – | – | – | Inhibition of LRV1 levels, in words [1]: no inhibition of LRV1 levels
26 | Nc1ncnc2c(C3N[C@H](CO)[C@@H](O)[C@H]3O)c[nH]c12 (stereo partly drawn) [Immucillin A] | – | – | – | – | Inhibition of LRV1 levels, in words [1]: no inhibition of LRV1 levels
27 | O=c1[nH]cnc2c([C@@H]3N[C@H](CO)[C@@H](O)[C@H]3O)c[nH]c12 [Immucillin H] | – | – | – | – | Inhibition of LRV1 levels, in words [1]: no inhibition of LRV1 levels
28 | Nc1ccn([C@@H]2CS[C@H](CO)O2)c(=O)n1 [Lamivudine] | – | 9.20E+6 cells/mL | – | 55% | –
29 | Nc1ncnc2nc[nH]c12 [adenine] | – | – | – | – | Effect of exogenous adenine on LRV1 levels, in words ([1]; adenine up to 400 μM, LgyLRV1+): nor did it alter LRV1 levels
